From patent US4927959A, “Alprenolol derivatives” (Snow Brand Milk Products Co., Ltd., priority 1987, dated 1990)
Structures can show the parent of a compound that is named as a salt.

How the values were obtained:
[1] = oral administration to dogs, plasma levels of the parent drug and AUC (improving effect on bioavailability); type: in vivo, Female beagle dogs; conditions: beagle dogs; for relationship between dose and AUC (area under the plasma concentration curve) (FIG. 14): alprenolol hydrochloride 2-30 mg/kg, hydrochlorides of (1) and (2) equivalent to 10 and 20 mg/kg; for plasma concentration of the parent drug (FIG. 13): hydrochlorides, dose equivalent to 20 mg/kg of alprenolol hydrochloride, 0.5-6 hours, versus alprenolol hydrochloride
Experimental: In the next step, the alprenolol drivative of this invention was orally administered to dogs as experimental animals. The results described below were obtained by investigating the improving effect on bioavailability. Female beagle dogs (a body weight of about 10 kg) were used as the experimental animals. The 12 dogs were divided into 2 groups of 6 dogs and each group was alternately subjected to the experiment with intervals of 2 weeks. To the dogs, 2, 5, 10, 20 and 30 mg/kg of alprenolol hydrochloride 13.50 and 27.00 mg/kg of the compound (1) hydrochloride, (equivalent to 10, 20 mg/kg of the alprenolol hydrochloride, respectively) and 13.99 and 27.98 mg/kg of the compound (2) hydrochloride (equivalent to 10 and 20 mg/kg of alprenolol hydrochloride, respectively) were orally administered. Blood was collected respectively after 0.5, 1, 2, 4 and 6 hours. The plasma separated from the blood was extracted with ethanol. Plasma levels of the parent drug were determined by HPLC. The conditions for the HPLC analysis are shown as follows: |Column ODS 4.6.phi. × 250 mm |Flow rate 0.8 ml/min |Eluent CH3 CN:CH3 OH:50 mM KH2 PO4

[2] = conversion test to the parent drug (alprenolol) in buffer solution having the pH of 7.4; type: physicochemical; conditions: hydrochloride, Britton-Robinson buffer pH 7.4, 37° C.; for half-life: read-out: Half-life time (T 1/2) (converted); for 50% producing time of the parent drug (T' 1/2): unit assumed
Experimental: Assuming the absorption and distribution of the derivatives in vivo, conversion tests to the parent drug (alprenolol) were carried out by the following method in buffer solutions having the pH of 2, 4 and 7.4.
Britton-Robinson buffer solutions having the pH of 2, 4 and 7.4 were prepared. To each 800 μl of the buffer solution, 200 μl of an aqueous solution of each compound which had been adjusted to a concentration of 2 mg/ml were added. The resulting mixture was incubated at 37° C.
From each reaction mixture, 100 μl of sample were collected after 0, 1, 3, 5, 7 and 24 hours, diluted with a developer and subjected to high performance liquid chromatography (abbreviated as HPLC) under following conditions.
(d) Conditions of HPLC in the conversion test;
(d) Conditions of HPLC in the above conversion test;
As to the compounds (hydrochloride) described in the above (1)-(4), the conversion rate to the parent drug was examined in a buffer solution having the pH of 7.4 assuming blood pH. Table 1 illustrates half-life time (T 1/2) of each compound in the above buffer solution and 50% producing time (T' 1/2) of the parent drug in the same buffer solution.

[3] = cited from earlier work

| Compound | relationship between dose and AUC (area under the plasma concentration curve) (FIG. 14) [1] | half-life [2] | 50% producing time of the parent drug (T' 1/2) [2] | plasma concentration of the parent drug (FIG. 13) [1] | bioavailability of alprenolol in the oral administration [3] |
| --- | --- | --- | --- | --- | --- |
| C=CCc1ccccc1OCC(CNC(C)C)OC(=O)CCC(=O)O (centres unmarked) [(1), Butanedioic acid mono[1-{(2-allylphenoxy)methyl}{2-(1-methylethyl)amino}ethyl]ester] | linear relationships | 7.4 h | 5 h | significantly high plasma concentration of the parent drug | – |
| C=CCc1ccccc1OCC(O)CNC(C)C (centres unmarked) [alprenolol] | – | – | – | – | 15% |
| C=CCc1ccccc1OCC(O)CNC(C)C (centres unmarked) [alprenolol hydrochloride, reference compound] | non-linear relationship with the threshold due to the first-pass effect | – | – | – | – |

The next lines start with results.

| relationship between dose and AUC (area under the plasma concentration curve) (FIG. 14) [1] | half-life [2] | 50% producing time of the parent drug (T' 1/2) [2] | Compound | plasma concentration of the parent drug (FIG. 13) [1] | bioavailability of alprenolol in the oral administration [3] |
| --- | --- | --- | --- | --- | --- |
| – | 1.3 h | 2 h | C=CCc1ccccc1OCC(CNC(C)C)OC(=O)CCCC(=O)OCC (centres unmarked) [(3), 4-Ethoxycarbonylbutanoic acid mono[1-{(2-allylphenoxy)methyl}-{2-(1-methylethyl)amino}ethyl]ester] | – | – |
| – | 0.9 h | 3 h | C=CCc1ccccc1OCC(CNC(C)C)OC(=O)/C=C\C(=O)O (centres unmarked) [(4), (z)-Butenedioic acid mono[1-{(2-allylphenoxy)methyl}-{2-(1-methylethyl)amino}ethyl]ester] | – | – |
| linear relationships | 4.9 h | 5 h | C=CCc1ccccc1OCC(CNC(C)C)OC(=O)CCCC(=O)O (centres unmarked) [(2), pentanedioic acid mono[1-{(2-allylphenoxy)methyl}-{2-(1-methylethyl)amino}ethyl]ester hydrochloride] | significantly high plasma concentration of the parent drug | – |
